{
  "source": "patent US8901118B2",
  "about": "“Compounds and methods for kinase modulation, and indications therefor” (Plexxikon Inc., priority 2010, dated 2014)",
  "system": "MV-4-11 cells",
  "assay": "MV-4-11 (leukemia) cell proliferation assay (ATPlite)",
  "type": "cell-based",
  "conditions": "Homo sapiens, MV4-11, read-out: Inhibition of Cell Proliferation IC50, MV-4-11",
  "procedure": "Compounds are assessed in a variety of cell based assays. For example BaF3 cells engineered with any of BCR-FMS, BCR-KIT, BCR-FLT3, BCR-NTRK1, BCR-NTRK2, and BCR-NTRK3, are used in cell proliferation assays to assess inhibitory activity of Fms, Kit, Flt-3, TrkA, TrkB, and TrkC, respectively. An MV-4-11 (leukemia) cell proliferation assay is used to assess inhibitory activity in Flt-3, and SKNSH (human neuroblastoma) cell proliferation assay is used to assess efficacy of Fms/Trk inhibitors. Additional cells may be assayed similarly to assess the efficacy of Fms/Trk inhibitors, such as MiaPaCa (human pancreatic cancer) and Capan-1 (human pancreatic carcinoma) cells. Reagent and assay conditions are as follows: • BaF3 cells: • Maintained in RPMI containing 10% FBS, 1% PenStrep, 1% NEAA, and 1% L-Glutamine, supplemented with 1 mg/mL G418 and 5% WEHI-CM (or recombinant murine IL-3). • Confluent cells are split 1:50 to 1:100 every 3-4 days. • MV-4-11 cells: • Maintained in Iscove's Modified Dulbecco's Medium containing 10% FBS. • Confluent cells are split 1:4 every 3-4 days. • SKNSH cells: RPMI containing 10% FBS. On day 1, cells are counted, then centrifuged in a conical tube for 5 minutes at 1000 rpm. The supernatant is removed and cells are re-suspended as follows: • BaF3: resuspend in growth media +1 mg/mL G418 (without WEHFIL-3) to 2×10^5 cells/mL. • MV-4-11: resuspend in growth media to 5×10^5 cells/mL. • SKNSH: resuspend in growth media to 2×10^4 cells/mL. The cells are plated (50 μL, 150 μL for SKNSH cells) in each well of a 96-well dish (Corning 3610) and incubated at 37° C. in 5% CO2 overnight, cells plated to a final concentration of cells as follows: • BaF3: 10,000 cells per well. • MV-4-11: 25,000 cells per well. • SKNSH: 3,000 cells per well. On day 2, compound at a maximum concentration of 5 mM is serially diluted 1:3 for a total of 8 point titration with DMSO as a control. A 1 μL aliquot of each dilution point is added to 249 μL growth media and 50 μL is added to a well containing cells, providing 10 μM compound for the maximum concentration point. The cells are incubated for 3 days at 37° C. in 5% CO2. For SKNSH cells, a 0.75 μL aliquot of appropriate dilution in DMSO is added to 150 μL of cells. On day 5, ATPlite 1 step Luminescence Assay System (Perkin Elmer #6016739) is brought to room temperature along with the cell cultures. ATPlite is added to each well as follows: • BaF3: 25 μL per well. • MV-4-11: 40 μL per well. • SKNSH: 20 μL per well. The cells are incubated at room temperature for 10 minutes, then luminescence is read on Safire reader. The measured luminescence correlates directly with cell number, such that the reading as a function of compound concentration is used to determine the IC50 value.\nIt is understood that the results of these assays may vary as assay conditions are varied. Inhibition levels determined under the conditions described herein represent a relative activity for the compounds tested under the specific conditions employed. The cell based assays are likely to show variability due to the complexity of the system and the sensitivity thereof to any changes in the assay conditions. […] Results for compounds that are tested and show substantially no inhibition below the highest tested concentration are represented as “-” in the tables below. In some instances, the compounds were not tested in all of the assays, or assay results were not valid, as indicated by NA in the tables below.",
  "data": [
    {"compound": "Fc1nc(NC2CCC(F)(F)CC2)ccc1Cc1c[nH]c2ncc(Cl)cc12", "note": "[Compound P-3013, [5-(5-Chloro-1H-pyrrolo[2,3-b]pyridin-3-ylmethyl)-6-fluoro-pyridin-2-yl]-(4,4-difluoro-cyclohexyl)-amine]", "values": [
      {"measurement": "IC50", "value": "< 10", "unit": "µM"}
    ]}
  ]
}
